Structures can show the parent of a compound that is named as a salt.
Target: T1, human IL-17AA (Homo sapiens, UniProt Q16552)
T1 construct: host or cells: HEK (human embryonic kidney) cells
T1 sequence (Q16552 24-155) 1: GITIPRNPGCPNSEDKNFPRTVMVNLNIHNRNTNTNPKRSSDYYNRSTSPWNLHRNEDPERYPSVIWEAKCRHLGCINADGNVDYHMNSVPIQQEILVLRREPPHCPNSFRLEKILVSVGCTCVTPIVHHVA
T1 sequence (Q16552 24-155) 2: T1 sequence (Q16552 24-155) 1
Test: IL-8 release assay in human epithelial keratinocytes adult (HEKa)
Format: cell-based
Conditions: 3 ng/ml human IL-17AA + 10 ng/ml human TNFalpha, 68-72 h, IL-8 by HTRF, read-out: Rel EC50 L-8 release assay
How it was run: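 Adult human keratinocytes in Epilife with HKGS minus hydrocortisone, treated with compound then stimulated with final 3 ng/ml HEK-derived human IL-17AA plus 10 ng/ml TNF-alpha for 68–72 h at 37 °C; TNF-alpha alone defines 100% inhibition. Secreted IL-8 by HTRF; relative IC50 and Emax from four-parameter fits.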

SMILES | EC50 [nM]
Cn1cncc1-c1ccc(NC(=O)[C@@H](NC(=O)C2(F)CC2)[C@@H]2CCCc3ccc(-c4ccnc(N5C[C@H]6C[C@@H]5CO6)c4)cc32)cc1O [Example 404, 1-fluoro-N-[(1S)-2-[3-hydroxy-4-(3-methylimidazol-4-yl)anilino]-1-[(1R)-7-[2-[(1R,4R)-2-oxa-5-azabicyclo[2.2.1]heptan-5-yl]-4-pyridyl]tetralin-1-yl]-2-oxo-ethyl]cyclopropanecarboxamide] | > 1000
Cc1cnn(C)c1-c1ccc(NC(=O)[C@@H](NC(=O)C2(F)CC2)[C@@H](c2cccc(-c3cc(N4C[C@@H]5C[C@H]4CO5)ncn3)c2)C2CC2)cc1 [Example 352, N-[(1S)-1-[(R)-cyclopropyl-[3-[6-[(1S,4S)-2-oxa-5-azabicyclo[2.2.1]heptan-5-yl]pyrimidin-4-yl]phenyl]methyl]-2-[4-(2,4-dimethylpyrazol-3-yl)anilino]-2-oxo-ethyl]-1-fluoro-cyclopropanecarboxamide] | 100 to 1000
Cc1ncn(C)c1-c1ccc(NC(=O)[C@@H](NC(=O)c2ccnn2C)[C@@H]2CCCc3ccc(-c4cccc(C(C)(C)N)c4)cc32)cc1 [Example 50, N-[(1S)-1-[(1R)-7-[3-(1-amino-1-methyl-ethyl)phenyl]tetralin-1-yl]-2-[4-(3,5-dimethylimidazol-4-yl)anilino]-2-oxo-ethyl]-2-methyl-pyrazole-3-carboxamide] | 100 to 1000
Cc1n[nH]c(C)c1-c1ccc(NC(=O)[C@@H](NC(=O)C2(F)CC2)[C@@H]2CCc3ccc(-c4ccnc(N5C[C@@H]6C[C@H]5CN6)c4)cc32)cc1 [Example 23, N-[(1S)-1-[(1R)-6-[2-[(1S,4S)-2,5-diazabicyclo[2.2.1]heptan-2-yl]-4-pyridyl]indan-1-yl]-2-[4-(3,5-dimethyl-1H-pyrazol-4-yl)anilino]-2-oxo-ethyl]-1-fluoro-cyclopropanecarboxamide] | < 100
Cc1n[nH]c(C)c1-c1ccc(NC(=O)[C@@H](NC(=O)c2ccnn2C)[C@@H]2CCc3ccc(-c4ccc(CN5CCOCC5)cc4)cc32)cc1 [Example 2, N-[(1S)-2-[4-(3,5-dimethyl-1H-pyrazol-4-yl)anilino]-1-[(1R)-6-[4-(morpholinomethyl)phenyl]indan-1-yl]-2-oxo-ethyl]-2-methyl-pyrazole-3-carboxamide] | < 100
Cc1n[nH]c(C)c1-c1ccc(NC(=O)[C@H](Cc2cc(-c3ccnc(N4C[C@H]5C[C@@H]4CO5)c3)ccc2Cl)NC(=O)C2(F)CC2)cc1 [Example 222, N-[(1S)-1-[[2-chloro-5-[2-[(1R,4R)-2-oxa-5-azabicyclo[2.2.1]heptan-5-yl]-4-pyridyl]phenyl]methyl]-2-[4-(3,5-dimethyl-1H-pyrazol-4-yl)anilino]-2-oxo-ethyl]-1-fluoro-cyclopropanecarboxamide] | < 100
Cc1cnn(C)c1-c1ccc(NC(=O)[C@@H](NC(=O)C2(F)CC2)[C@@H]2CCCc3ccc(-c4ccnc(N5C[C@@H]6C[C@H]5CO6)c4)cc32)cc1 [Example 398, N-[(1S)-2-[4-(2,4-dimethylpyrazol-3-yl)anilino]-1-[(1R)-7-[2-[(1S,4S)-2-oxa-5-azabicyclo[2.2.1]heptan-5-yl]-4-pyridyl]tetralin-1-yl]-2-oxo-ethyl]-1-fluoro-cyclopropanecarboxamide] | < 100
Cc1n[nH]c(C)c1-c1ccc(NC(=O)[C@@H](NC(=O)C2(F)CC2)[C@@H]2CCc3ccc(-c4cnn(C(C)(C)CN)c4)cc32)cc1 [Example 24, N-[(1S)-1-[(1R)-6-[1-(2-amino-1,1-dimethyl-ethyl)pyrazol-4-yl]indan-1-yl]-2-[4-(3,5-dimethyl-1H-pyrazol-4-yl)anilino]-2-oxo-ethyl]-1-fluoro-cyclopropanecarboxamide] | 100 to 1000
CN1CCOC[C@H]1c1cccc(-c2ccc(Cl)c(C[C@H](NC(=O)c3ccnn3C)C(=O)Nc3ccc(-c4cncn4C)cc3)c2)c1 [Example 218, N-[(1S)-1-[[2-chloro-5-[3-[(3R)-4-methylmorpholin-3-yl]phenyl]phenyl]methyl]-2-[4-(3-methylimidazol-4-yl)anilino]-2-oxo-ethyl]-2-methyl-pyrazole-3-carboxamide] | 100 to 1000
Cc1cnn(C)c1-c1ccc(NC(=O)[C@@H](NC(=O)c2ccnn2C)[C@@H](c2cccc(-c3cncc(N4C[C@@H]5C[C@H]4CO5)c3)c2)C2CC2)cc1 [Example 348, N-[(1S)-1-[(R)-cyclopropyl-[3-[5-[(1S,4S)-2-oxa-5-azabicyclo[2.2.1]heptan-5-yl]-3-pyridyl]phenyl]methyl]-2-[4-(2,4-dimethylpyrazol-3-yl)anilino]-2-oxo-ethyl]-2-methyl-pyrazole-3-carboxamide] | < 100
Cn1cncc1-c1ccc(NC(=O)[C@H](Cc2cc(-c3cccc(C4CNCCO4)c3)ccc2Cl)NC(=O)c2ccnn2C)cc1 (stereo partly drawn) [Example 219, N-[(1S)-1-[[2-chloro-5-(3-morpholin-2-ylphenyl)phenyl]methyl]-2-[4-(3-methylimidazol-4-yl)anilino]-2-oxo-ethyl]-2-methyl-pyrazole-3-carboxamide hydrochloride] | 100 to 1000
Cc1n[nH]c(C)c1-c1ccc(NC(=O)[C@@H](NC(=O)c2ccnn2C)[C@@H]2CCCc3ccc(-c4ccc5c(c4)CN(C)C5)cc32)cc1 [Example 37, N-[(1S)-2-[4-(3,5-dimethyl-1H-pyrazol-4-yl)anilino]-1-[(1R)-7-(2-methylisoindolin-5-yl)tetralin-1-yl]-2-oxo-ethyl]-2-methyl-pyrazole-3-carboxamide] | < 100

Further lines, results first:

EC50 [nM] | SMILES
100 to 1000 | C[C@H]1CNCCN1c1cc(-c2ccc(Cl)c(C[C@H](NC(=O)c3ccnn3C)C(=O)Nc3ccc(-c4cncn4C)cc3)c2)ccn1 [Example 208, N-[(1S)-1-[[2-chloro-5-[2-[(2S)-2-methylpiperazin-1-yl]-4-pyridyl]phenyl]methyl]-2-[4-(3-methylimidazol-4-yl)anilino]-2-oxo-ethyl]-2-methyl-pyrazole-3-carboxamide]
> 1000 | Cn1cnnc1-c1ccc(NC(=O)C(Cc2cc(-c3ccnc(CC(C)(C)O)c3)ccc2Cl)NC(=O)c2ccnn2C)cc1 (stereo not shown) [Example 64, N-[1-[[2-chloro-5-[2-(2-hydroxy-2-methyl-propyl)-4-pyridyl]phenyl]methyl]-2-[4-(4-methyl-1,2,4-triazol-3-yl)anilino]-2-oxo-ethyl]-2-methyl-pyrazole-3-carboxamide]
< 100 | Cc1n[nH]cc1-c1ccc(NC(=O)[C@H](Cc2cc(-c3ccc(=O)n(C(C)C)c3)ccc2Cl)NC(=O)c2ccnn2C)cc1O [Example 174, N-[(1S)-1-[[2-chloro-5-(1-isopropyl-6-oxo-3-pyridyl)phenyl]methyl]-2-[3-hydroxy-4-(3-methyl-1H-pyrazol-4-yl)anilino]-2-oxo-ethyl]-2-methyl-pyrazole-3-carboxamide]
100 to 1000 | CC(C)n1cc(-c2ccc(Cl)c(C[C@H](NC(=O)OC(C)(C)C)C(=O)Nc3ccc(-c4cncn4C)c(F)c3)c2)ccc1=O [Example 134, tert-butyl N-[(1S)-1-[[2-chloro-5-(1-isopropyl-6-oxo-3-pyridyl)phenyl]methyl]-2-[3-fluoro-4-(3-methylimidazol-4-yl)anilino]-2-oxo-ethyl]carbamate]
< 100 | Cc1n[nH]c(C)c1-c1ccc(NC(=O)[C@@H](NC(=O)c2ccnn2C)[C@@H]2CCCc3ccc(-c4ccc(=O)n(C(C)C)c4)cc32)cc1O [Example 33, N-[(1S)-2-[4-(3,5-dimethyl-1H-pyrazol-4-yl)-3-hydroxy-anilino]-1-[(1R)-7-(1-isopropyl-6-oxo-3-pyridyl)tetralin-1-yl]-2-oxo-ethyl]-2-methyl-pyrazole-3-carboxamide]
100 to 1000 | CC(C)n1cc(-c2ccc(Cl)c(CC(NC(=O)c3ccnn3C)C(=O)Nc3ccc(-c4nncn4C)c(O)c3)c2)ccc1=O (stereo not shown) [Example 69, N-[1-[[2-chloro-5-(1-isopropyl-6-oxo-3-pyridyl)phenyl]methyl]-2-[3-hydroxy-4-(4-methyl-1,2,4-triazol-3-yl)anilino]-2-oxo-ethyl]-2-methyl-pyrazole-3-carboxamide]
> 1000 | COCOc1ccc(-c2ccc(Cl)c(CC(NC(=O)c3ccnn3C)C(=O)Nc3ccc(-c4nncn4C)cc3)c2)cc1C(=O)N1CCC1 (stereo not shown) [Example 156, N-[1-[[5-[3-(azetidine-1-carbonyl)-4-(methoxymethoxy)phenyl]-2-chloro-phenyl]methyl]-2-[4-(4-methyl-1,2,4-triazol-3-yl)anilino]-2-oxo-ethyl]-2-methyl-pyrazole-3-carboxamide]
100 to 1000 | Cn1cncc1-c1ccc(NC(=O)C(Cc2cc(-c3ccnc(N4CCC4CO)c3)ccc2Cl)NC(=O)c2ccnn2C)cc1 (stereo not shown) [Example 187, N-[1-[[2-chloro-5-[2-[2-(hydroxymethyl)azetidin-1-yl]-4-pyridyl]phenyl]methyl]-2-[4-(3-methylimidazol-4-yl)anilino]-2-oxo-ethyl]-2-methyl-pyrazole-3-carboxamide]
< 100 | Cc1nocc1C(=O)N[C@@H](Cc1cc(-c2ccc(=O)n(C(C)C)c2)ccc1Cl)C(=O)Nc1ccc(-c2ccnn2C)c(O)c1 [Example 71, N-[(1S)-1-[[2-chloro-5-(1-isopropyl-6-oxo-3-pyridyl)phenyl]methyl]-2-[3-hydroxy-4-(2-methylpyrazol-3-yl)anilino]-2-oxo-ethyl]-3-methyl-isoxazole-4-carboxamide]
100 to 1000 | Cn1cncc1-c1ccc(NC(=O)C(Cc2cc(-c3ccnc(N4CC(N)C4)c3)ccc2Cl)NC(=O)c2ccnn2C)cc1 (stereo not shown) [Example 195, N-[1-[[5-[2-(3-aminoazetidin-1-yl)-4-pyridyl]-2-chloro-phenyl]methyl]-2-[4-(3-methylimidazol-4-yl)anilino]-2-oxo-ethyl]-2-methyl-pyrazole-3-carboxamide]

Reference: patent publication US20220162191A1, “SMALL MOLECULE MODULATORS OF IL-17” (LEO PHARMA A/S, priority 2019, published 2022)
